In one test the test system is Septoria tritici. The experiment in a line: Septoria tritici infection of wheat plants, isopyrazam spray with/without adjuvants. The format is in vivo, Septoria tritici (on wheat plants). The note with it: conclusion from Table 2. Here is the method:
The efficacy of the following aromatic acid esters tri-n-hexyltrimellitate (Morflex®560) and tri-isodecyl trimellitate (Morflex®530), as adjuvants in compositions comprising isopyrazam was tested and compared to the standard formulations (both EC and SC) of the fungicide, which lack this type of adjuvant.
Wheat plants were inoculated with the fungus Septoria tritici. Five days after inoculation the plants were sprayed with a diluted emulsion concentrate or suspension concentrate formulation of the fungicide isopyrazam at rates of 3, 10, 30 and 100 mg of the fungicide per litre of spray solution, using a laboratory track sprayer which delivered the spray at a rate of 200 liters per hectare. Spray tests were also carried out with diluted suspension concentrate additionally comprising each of the benzoate adjuvants described above. These adjuvants were added to the spray solution at a rate of 0.5% w/w, based on the quantity of spray liquor. The adjuvant oils were emulsified using a small amount of the surfactant Pluronic® PE 10500, which was present in the composition at a concentration of 0.02% v/v. The leaves of the plants were assessed visually 14 days after the spray application and the damage was expressed as the percentage of the leaf area infected.

The subject of test [1] is Polygonum convolvulus, Brachiaria platyphylla, Digitaria sanguinalis, Amaranthus tuberculatus. The experiment in a line: Glasshouse weed kill, mesotrione with/without adjuvants (Example 5). The format is in vivo. The note with it: conclusion from Table 6. Here is the method: The efficacy of the aromatic ester tri-n-hexyltrimellitate (Morflex®560) was tested in a glasshouse against four weed species using the herbicide mesotrione. An agrochemical composition was prepared containing 0.2% v/v of the adjuvant in a track sprayer and was applied at a volume of 200 liters per hectare. The adjuvant oils were emulsified using a small amount of the surfactant Pluronic® PE 10500, which was present in the composition at a concentration of 0.02% v/v. Mesotrione was applied at either 45 or 90 grams of pesticide per hectare on weeds which had been grown to the 1.3 or 1.4 leaf stage. The weed species were Polygonum convolvulus (POLCO), Brachiaria platyphylla (BRAPL) Digitaria sanguinalis (DIGSA) and Amaranthus tuberculatus (AMATU).
Each spray test was replicated three times. The efficacy of the herbicide was assessed visually and expressed as a percentage of the leaf area killed. Samples were assessed at time periods of 7, 14 and 21 days following application. The results shown in Table 6 below are mean averages over the two rates of mesotrione, three relicates, four weed species and the three assessment timings and are compared to the efficacy of mesotrione in the absence of an adjuvant, and mesotrione in the presence of the commercially available adjuvants acetyl tributyl citrate or Tween®20 which were used at concentrations of 0.2 and 0.5% w/w respectively.

The next test relates to Tetranychus urticae. The experiment in a line: Mortality of two spotted spider mite on French bean plants, abamectin with/without Morflex 560. Format: in vivo, Tetranychus urticae (on Phaseolus vulgaris). As for the experimental part:
The efficacy of tri-n-hexyltrimellitate (Morflex® 560) as an adjuvant in compositions containing abamectin was tested and compared to the efficacy of abamectin compositions which lack this type of adjuvant. The Morflex 560 was present at 0.1% v/v in the abamectin compositions. The surfactants polyoxyethylene sorbitan monooleate and an ethoxylated castor oil were also present in all the abamectin compositions tested. Two week old French bean (Phaseolus vulgaris) plants were infested with a mixed population of two spotted spider mite Tetranychus urticae. One day after infestation the plants were treated with the test compositions, with a track sprayer from the top with a rate of 200 liters per hectare. Plants were incubated in the greenhouse for 10 days and the evaluation was done on mortality against Larva and Adults, just on the lower side (untreated) of the leaves. Each experiment was replicated twice and the results were averaged. The mortality against Larva and Adults was then averaged.

The text below walks through data of patent US9173397B2, “Formulation component” (Syngenta Limited, priority 2011, dated 2015).

Take `CCCCCCOC(=O)c1ccc(C(=O)OCCCCCC)c(C(=O)OCCCCCC)c1` [Tri-n-hexyltrimellitate, Tri-n-hexyl trimellitate]: the “adjuvant efficacy in words (isopyrazam, S. tritici)” value in the test with Septoria tritici is reported as “as efficacious as the commercial tank mix adjuvant Turbocharge®”. Also, the “adjuvant efficacy in words (mesotrione)” value in test [1] is listed as “as effective an adjuvant as either acetyl tributyl citrate or Tween®20”. The “mortality of Tetranychus urticae” value in the test on Tetranychus urticae (composition without abamectin, 0.1% v/v Morflex 560) is given as “no mortality was observed”. Moreover, the “adjuvant efficacy in words (abamectin, Tetranychus urticae)” value in the test on Tetranychus urticae (conclusion from Table 10) is listed as “provided effective control of Tetranychus urticae at much lower concentrations of abamectin than are required in the absence of adjuvant”.
